{"source": "paper PMC6254723", "about": "“Synthesis and Pharmacological Screening of Several Aroyl and Heteroaroyl Selenylacetic Acid Derivatives as Cytotoxic and Antiproliferative Agents” (Molecules, 2009)", "key": {"184B5": {"test_system": "184B5", "test": "MTT toxicity assay in non-malignant mammary gland cells 184B5", "format": "cell-based", "experimental": "(§1) In order to investigate the effect of the active compounds in more detail, we examined the activity on proliferation in other cancer cell lines. […] Tests were carried out in the Department of Health Science, Public University of Navarra against a panel of four human tumour cell lines: lung (HTB-54), colon (HT-29), leukaemia (CCRF-CEM) and breast adenocarcinoma (MCF-7). Cytotoxicity assays were performed based on the reactivity of MTT [3-(4,5-dimethylthiazol-2-yl)-2,5-diphenyl-tetrazolium bromide], as described by NCI [39]. […] Doxorubicin was used as a control. As guidance with regard to selectivity, all of the compounds were further examined for toxicity in a mammary gland cell culture derived from non-malignant cells (184B5). Drug concentrations ranged from 0.01 to 100 μM.\n(§2) The cytotoxic effects of each substance were tested at five different doses between 0.01 and 100 μM. Each substance was initially dissolved in DMSO at a concentration of 0.1 M, and serial dilutions were prepared using culture medium. The plates with cells from the different lines, to which medium containing the substance under test were added, were incubated for 72 h at 37 °C in a humidified atmosphere containing 5% CO2. European Collection of Cell Cultures (ECACC) or American Type Culture Collection (ATCC) provided human tumour cell lines. Four cell lines were used: one human lymphocytic leukemia (CCRF-CEM) and three human solid tumours, one colon carcinoma (HT-29), one lung carcinoma (HTB-54) and one breast adenocarcinoma (MCF-7). CCRF-CEM, HT-29 and HTB-54 cells were grown in RPMI 1640 medium (Life Technologies, Carlsbad, CA, USA) supplemented with 10% foetal calf serum, 2 mM L-glutamine, 100 units/mL penicillin, 100 μg/mL streptomycin and 10 mM HEPES buffer (pH = 7.4). MCF-7 cells were grown in EMEM medium (Clonetics) supplemented with 10% foetal calf serum, 2 mM L-glutamine, 100 units/mL penicillin and 100 μg/mL streptomycin. 184B5 cells were grown Hams F-12/DMEM (50:50) supplemented as described by Li et al.. Cytotoxicity was then determined by the MTT method. […] Data were obtained from at least three independent experiments performed in quadruplicate."}, "[1]": {"test": "MTT toxicity assay in non-malignant mammary gland cells 184B5", "format": "cell-based", "details": "human; 72 h, non-malignant cells, dose that inhibits 50% of cell growth; read-out: GI50 184B5", "experimental": "as §1, §2"}, "MCF-7": {"test_system": "MCF-7", "test": "MTT cytotoxicity assay (NCI) in MCF-7", "format": "cell-based, human", "experimental": "as §1, §2"}, "HTB-54": {"test_system": "HTB-54", "test": "MTT cytotoxicity assay (NCI) in HTB-54", "format": "cell-based, human", "experimental": "as §1, §2"}, "CCRF-CEM": {"test_system": "CCRF-CEM", "test": "MTT cytotoxicity assay (NCI) in CCRF-CEM", "format": "cell-based, human", "details": "72 h", "experimental": "as §1, §2"}, "PC-3 cell line [2]": {"test_system": "PC-3 cell line", "test": "MTT cytotoxicity assay in PC-3", "details": "Homo sapiens", "experimental": "The results are tabulated as IC50 values. All experiments were independently performed at least three times and the values were calculated after 72 hours exposure (drug concentrations of 2, 5, 7 and 10 μM).\nPC-3 cells were seeded in 96-well plates (Millipore, Eschborn, Germany) at a density of 5 × 10^3 cells per well. The samples were incubated at 37 °C under 5% CO2 overnight prior to the addition of the compounds. Compounds were diluted in complete medium. After 3 days of incubation, 10 μL MTT solution (5 mg/mL in PBS) was added to the cells in each well and these were stored for an additional 4 h at 37 °C. […] The percentage of viable cells was calculated to obtain IC50-values.\nPC-3 are human tumorigenic and metastatic prostate cancer cells and these were obtained from American Type Culture Collection (ATCC, Manassas, VA, USA) (passage 36)."}, "MCF-7 cells [3]": {"test_system": "MCF-7 cells", "test": "Apoptosis, Apo-Direct kit (TUNEL)", "format": "cell-based, human", "details": "MCF-7, 25 μM, 48 hours", "experimental": "The apoptotic status of the cells after 48 hours of treatment with 25 μM of the corresponding compound was determined using the Apo-Direct kit (BD Pharmingen) based on the TUNEL technique. Camptothecin was used as a positive control.\n(§3) For breast adenocarcinoma MCF-7 cells, the apoptotic status and cell cycle analysis of the cells were determined using the Apo-Direct kit (BD Pharmingen), based on the TUNEL technique, under the conditions described by the manufacturer."}, "HT-29": {"test_system": "HT-29", "test": "MTT cytotoxicity assay (NCI) in HT-29", "format": "cell-based, human", "experimental": "as §1, §2"}, "MCF-7 cells [4]": {"test_system": "MCF-7 cells", "test": "Cell cycle progression by flow cytometry", "format": "cell-based, human", "details": "MCF-7, 25 μM, 48 hours", "experimental": "Cell cycle arrest is one of the targets of many anticancer drugs, including doxorubicin and camptothecin. In an effort to ascertain whether compound 1 could affect cell cycle progression in MCF-7 cells, these cells were treated with 25 μM of the corresponding compound for 48 hours and cell cycle progression was determined by flow cytometry analysis.\nas §3"}, "PC-3 cell line [5]": {"test_system": "PC-3 cell line", "details": "cited from earlier work"}, "[6]": {"details": "72 h, dose that completely inhibits cell growth"}, "[7]": {"details": "72 h, dose that kills 50% of cells"}, "[8]": {"details": "listed as benzoylselenylacetic acid"}}, "note": "Entries after “also recorded” stand apart in the source; their conditions may differ. Where two headings read alike, the source gives them in different places.", "data": [{"smiles": "O=C(O)C[Se]C(=O)c1ccccc1", "note": "[Compound 1, (Benzoylselenyl)acetic acid]", "values": [{"measurement": "TGI 184B5", "setting": "184B5; 72 h, non-malignant cells, dose that completely inhibits cell growth", "value": 22.50, "unit": "µM"}, {"measurement": "LD50 184B5", "setting": "184B5; 72 h, non-malignant cells, dose that kills 50% of cells", "value": 76.73, "unit": "µM"}, {"measurement": "selectivity index (184B5/MCF-7 LD50 ratio)", "setting": "184B5; LD50 in 184B5 divided by LD50 in MCF-7", "value": 1.3}, {"measurement": "GI50 at 72 h", "setting": "[1]", "value": 1.97, "unit": "µM"}, {"measurement": "TGI MCF-7", "setting": "MCF-7; [6]", "value": 3.69, "unit": "µM"}, {"measurement": "LD50 MCF-7", "setting": "MCF-7; [7]", "value": 58.01, "unit": "µM"}, {"measurement": "GI50", "setting": "MCF-7; Homo sapiens, MCF7, 72 h, read-out: GI50 MCF-7", "value": 0.09, "unit": "µM"}, {"measurement": "TGI HTB-54", "setting": "HTB-54; [6]", "value": 42.47, "unit": "µM"}, {"measurement": "LD50 HTB-54", "setting": "HTB-54; [7]", "value": ">100", "unit": "µM"}, {"measurement": "GI50", "setting": "HTB-54; Homo sapiens, HTB-54, 72 h, read-out: GI50 HTB-54", "value": 0.58, "unit": "µM"}, {"measurement": "TGI CCRF-CEM", "setting": "CCRF-CEM; dose that completely inhibits cell growth", "value": ">100", "unit": "µM"}, {"measurement": "LD50 CCRF-CEM", "setting": "CCRF-CEM; dose that kills 50% of cells", "value": ">100", "unit": "µM"}, {"measurement": "GI50", "setting": "CCRF-CEM; Homo sapiens, CCRF-CEM, read-out: GI50 CCRF-CEM", "value": "> 100", "unit": "µM"}, {"measurement": "IC50", "setting": "PC-3 cell line [2]; PC-3, 72 h, read-out: IC50 PC-3 cell line", "value": 6.8, "unit": "µM"}, {"measurement": "IC50", "setting": "PC-3 cell line [2]; PC-3, read-out: IC50 (cytotoxic activity in PC-3 cell line)", "value": 6.8, "unit": "µM"}, {"measurement": "induction of apoptosis", "setting": "MCF-7 cells [3]", "value": "induction of cell death was independent of the apoptotic process; also recorded: mechanism of action is independent of apoptosis"}, {"measurement": "induction of apoptosis", "setting": "MCF-7 cells [3]; [8]", "value": "did not provoke apoptosis"}, {"measurement": "TGI HT-29", "setting": "HT-29; [6]", "value": 55.98, "unit": "µM"}, {"measurement": "LD50 HT-29", "setting": "HT-29; [7]", "value": ">100", "unit": "µM"}, {"measurement": "GI50", "setting": "HT-29; Homo sapiens, HT-29, 72 h, read-out: GI50 HT-29", "value": 7.39, "unit": "µM"}, {"measurement": "effect on cell cycle progression", "setting": "MCF-7 cells [4]", "value": "did not induce any specific phase arrest of the cell cycle"}, {"measurement": "effect on cell cycle progression", "setting": "MCF-7 cells [4]; [8]", "value": "nor did it perturb the cell cycle"}]}, {"smiles": "COc1cc([C@@H]2c3cc4c(cc3[C@@H](O[C@@H]3O[C@@H]5CO[C@@H](C)O[C@H]5[C@H](O)[C@H]3O)[C@H]3COC(=O)[C@H]23)OCO4)cc(OC)c1O", "note": "[Etoposide]", "values": [{"measurement": "IC50", "setting": "PC-3 cell line [5]; etoposide control", "value": "13.6 ± 2.2", "unit": "µM"}]}, {"smiles": "C[Se](=O)O", "note": "[MSA, methylseleninic acid]", "values": [{"measurement": "IC50", "setting": "PC-3 cell line [5]; methylseleninic acid control", "value": 8.38, "unit": "µM"}]}]}
